Assay results as given in patent publication US8822533B1, “Methods and compositions for repelling and/or killing insects” (The United States of America, as represented by the …, priority 2011, dated 2014).

Legend:
Ae. aegypti mosquitoes = experiment: Sleeve bite protection assay on treated uniform fabric, mosquitoes; assay type: in vivo, Aedes aegypti (Orlando, 1952)
Experimental: (§1) Biological Evaluation: Bite protection assays were conducted with laboratory-reared 7-12 day old mosquitoes or sand flies. The species used throughout these studies are Aedes aegypti (Orlando, 1952) and Phlebotomus papatasi sand flies (Jerusalem, 1983). Females were pre-selected using either a hand draw box or a mechanical aspirator. An assay was conducted by wearing sewn sleeves made from clothing material. Treated specimens were assayed with untreated controls to correct for the bite resistance afforded by material construction and composition. The untreated control was tested at the beginning of the experiment, followed by successively higher candidate repellent concentrations on sleeves. Sleeves were sewn from a cut out single ply trapezoidal pattern (33.2 cm×21 cm×25.5 cm height) of material. […] Permethrin was 35:65cis: trans, 95.85% technical material. Experimental repellents were received as neat samples with <5% impurities. The treatment occurred by dissolution of repellent in suitable quantity of acetone to saturate the clothing, but minimizing excess solution. Excess solution was quantified and this amount of excess was then used to calculate the estimated amount of repellent applied to the material. […] The photoperiod was 12:12. The mosquito cages were approximately 60000 cm^3 and each contained 175 to 225 female mosquitoes. […] Cages for sand fly work were slightly smaller (15000 cm^3) and constructed of acrylic for filming purposes and with screens on the exterior edges to allow air flow through the system. About 20-40 sand flies were released in cages for each assay. Assays started when the sleeved arm was inserted through the sleeve into the cage. Normally the hand was protected by a glove, but there were situations (i.e. sand fly data presented here) when the ability of a repellent to protect the untreated hand was determined. The assay periods were 15 min for the mosquitoes and 25-30 minutes for sand flies. The insects were allowed to land, probe and possibly bloodfeed during this time. At the conclusion of the experiment, all insects were knocked down or aspirated and the percentage that bloodfed of the total female test population in the cage was recorded. The protect level was calculated by Abbott's formula as a percentage reduction in bites compared to the untreated fabric control sleeve. Specific conditions for bioassays are noted with corresponding data contained in the Tables.

[1] = test system: Phlebotomus papatasi sand flies; experiment: Sleeve bite protection assay on treated uniform fabric, sand flies; assay type: in vivo, Phlebotomus papatasi (Jerusalem, 1983); settings: FRACU, 25-29 minutes
Experimental: as §1

[2] = test system: Mosquitoes, either Aedes aegypti (Liverpool) or Anopheles stephensi Liston; experiment: K&D module in vitro bioassay: biting protection, knockdown and mortality; assay type: in vivo
Experimental: In vitro bioassays were conducted as described by Klun et. al. (Klun, J. A., et al., J. Med. Entomol., 40: 293-299 (2005)). Each test replicate consisted of 3 treatments: a control (EtOH); a standard (Deet, 4.54 nmol/μl); and an experimental compound (pyrethroid analogs, 4.54 nmol/ul). The 3 treatments were randomly assigned to consecutive cells in 2, 6-cell reservoirs connected in series to a single water-bath pump; thus, 4 replicates could be tested/run. Tests were performed in an Air Science USA hood, with an air movement velocity of approx. 110-120 ft./min., temperature of 25-27° C., and RH of 15-25%. A 6-celled reservoir was connected to and heated by a constant-temperature (38° C.) water circulator (Lauda E100, Wobser GMGH and Co., Konigshofell, Germany).
Prior to each test, the upper surface of each reservoir was coated with a thin layer of high-vacuum silicone grease (Dow Corning Corp., Midland, Mich.), and the cells then filled (approx. 6 ml. capacity) or topped-off with either: (1) expired human red blood cells suspended in citrate-phosphate-dextrose-adenine (CPDA) solution, not more than 1 month past expiration date, and to which 110 mg ATP/35 ml. blood-CPDA had been added on the day of testing; or (2) CPDA+ATP×^−3, usually made up or diluted to 10^−3 ATP on the day of testing. The filled cells were then covered with an Edicol collagen membrane (Devro, Sandy Run, S.C.) strip, and then with a just-treated (110 μl of 4.54 nmol/μl treatment or control solution) organdy cloth (G Street Fabrics, Rockville, Md.) strip. Mosquitoes used in tests were either Aedes aegypti_(Liverpool) or Anopheles stephensi_Liston. K&D modules containing 5 adult females/cell were placed over a Teflon separator atop each reservoir; the sliding floors opened allowing access to the treated organdy cloth and membrane-covered cell; and the number of mosquitoes biting (proboscis inserted through the cloth) and/or observed to be engorged within each cell at the end of a 3-5 min. exposure period was recorded. Mosquitoes were used only once in a test, and then frozen and discarded.
Only tests in which 3 or more females fed in the control cell were analyzed, as lower feeding rates are indicative of substandard feeding readiness of that group of mosquitoes.
[…] Data were collected to record knockdown in 6 minutes, one hour and 24 hours post exposure.

[3] = ACU (50/50 NYCO) sleeve, glove on hand, 15 min, permethrin 0.118, transfluthrin 0.108, TL-I-107 0.107, TL-I-141 0.109, TL-I-105 0.107, TL-I-73 0.102 mg/cm^2
[4] = ACU (50/50 NYCO) sleeve, glove on hand, Abbott's formula vs untreated sleeve, concentrations as E1
[5] = ACU (50/50 NYCO) sleeve, glove on hand, concentrations as E1
[6] = ACU sleeve, No Glove on hand, permethrin 0.118, transfluthrin 0.108 mg/cm^2
[7] = ACU sleeve, stored one year then tested, concentrations as E1
[8] = ACU sleeve, treated specimens stored in refrigerator for one year then tested, concentrations as E1
[9] = FRACU sleeve, concentrations as E9
[10] = FRACU, permethrin sleeve 0.135 mg/cm^2 + untreated strip, Ultrathon (34.34% DEET) on hand
[11] = FRACU, permethrin sleeve 0.135 mg/cm^2 + untreated strip, hand gloved
[12] = permethrin sleeve 0.135 mg/cm^2 + untreated strip, hand ungloved
[13] = FRACU, untreated sleeve + treated strip, Ultrathon (34.34% DEET) on hand, TL-I-73 0.163, transfluthrin 0.158 mg/cm^2
[14] = FRACU, untreated sleeve + treated strip, hand gloved, TL-I-73 0.163, transfluthrin 0.158 mg/cm^2
[15] = untreated sleeve + TL-I-73 strip 0.163 mg/cm^2, hand ungloved

Structure (SMILES)	Blood-fed # (Ae. aegypti mosquitoes; [3])	Bite Protection (%) (Ae. aegypti mosquitoes; [4])	Fed (%) (Ae. aegypti mosquitoes; [5])	Bite Protection (%) (Ae. aegypti mosquitoes; [7])	Fed (%) (Ae. aegypti mosquitoes; [7])	Blood-fed # (Ae. aegypti mosquitoes; [8])	Knockdown 6 min (%) ([2]; 2.5 nM\cm^2, K&D module)	Knockdown 1 hour (%) ([2]; 2.5 nM\cm^2, K&D module)	Knockdown 24 hours (%) ([2]; 2.5 nM\cm^2, K&D module)	Not feeding 3 minutes (%) ([2]; 2.5 nM\cm^2, K&D module)	Knockdown 6 min (%) ([2]; 25 nM\cm^2, K&D module)	Knockdown 1 hour (%) ([2]; 25 nM\cm^2, K&D module)	Knockdown 24 hours (%) ([2]; 25 nM\cm^2, K&D module)	Not feeding 3 minutes (%) ([2]; 25 nM\cm^2, K&D module)	also measured
CC1(C)C(C=C(Cl)Cl)C1C(=O)OCc1cccc(Oc2ccccc2)c1 (centres unmarked) [Permethrin]	0 #	100	0.0	100	0.0	0 #	–	–	–	–	–	–	–	–	Blood-fed # (Ae. aegypti mosquitoes; [6]): 32 #; Fed (%) (Ae. aegypti mosquitoes; [6]): 18.1%; Blood-fed # (Ae. aegypti mosquitoes; FRACU (65% Rayon, 10% Nylon, 25% Para-aramid) sleeve, permethrin 0.071, combination permethrin 0.031 + transfluthrin 0.038, transfluthrin 0.052 mg/cm^2): 24 #; Bite Protection (%) (Ae. aegypti mosquitoes; [9]): 86.7%; Fed (%) (Ae. aegypti mosquitoes; [9]): 10.5%; Bite Protection (%) (Ae. aegypti mosquitoes; [10]): 71.5%; Blood-fed # (Ae. aegypti mosquitoes; [10]): 15 #; Fed (%) (Ae. aegypti mosquitoes; [10]): 7.6%; Bite Protection (%) (Ae. aegypti mosquitoes; [11]): 94.0%; Blood-fed # (Ae. aegypti mosquitoes; [11]): 10 #; Fed (%) (Ae. aegypti mosquitoes; [11]): 4.9%; Bite Protection (%) [1, 12]: −28.5%; Blood-fed # [1, 12]: 11 #; Fed (%) [1, 12]: 52.3%; Bite Protection (%) ([1]; permethrin sleeve 0.135 mg/cm^2 + untreated strip, hand ungloved, listed as permethrin): increased bites on the skin
COCc1c(Cl)c(Cl)c(COC(=O)[C@@H]2[C@@H](C=C(C)C)C2(C)C)c(Cl)c1Cl [TL-I-73]	0 #	100	0.0	100	0.0	0 #	97	100	100	100	97	100	100	100	Blood-fed # (Ae. aegypti mosquitoes; FRACU, untreated sleeve + treated strip (20.5 cm × 2.6 cm) at wrist, hand gloved, TL-I-73 0.163, transfluthrin 0.158 mg/cm^2): 71 #; Blood-fed # (Ae. aegypti mosquitoes; FRACU, untreated sleeve + treated strip, Ultrathon 12 hr repellent (34.34% DEET) on hand, TL-I-73 0.163, transfluthrin 0.158 mg/cm^2): 85 #; Bite Protection (%) (Ae. aegypti mosquitoes; [13]): −45%; Fed (%) (Ae. aegypti mosquitoes; [13]): 38.8%; Bite Protection (%) (Ae. aegypti mosquitoes; [14]): 57.2%; Fed (%) (Ae. aegypti mosquitoes; [14]): 10.5%; Bite Protection (%) [1, 15]: 21.8%; Blood-fed # [1, 15]: 7 #; Fed (%) [1, 15]: 31.8%
CC(C)=C[C@@H]1[C@@H](C(=O)OCc2c(Cl)c(Cl)c(C)c(Cl)c2Cl)C1(C)C [TL-I-109]	–	–	–	–	–	–	4	35	6	98	4	58	37	98	–
Cc1c(Cl)c(Cl)c(COC(=O)C2C(C=C(Cl)Cl)C2(C)C)c(Cl)c1Cl (centres unmarked) [TL-I-111]	–	–	–	–	–	–	0	16	8	90	2	23	16	92	–
Cc1c(Cl)c(Cl)c(COC(=O)C2C(C=C(Cl)C(F)(F)F)C2(C)C)c(Cl)c1Cl (centres unmarked) [TL-I-113]	–	–	–	–	–	–	0	14	9	76	0	34	23	92	–
Cc1c(F)c(F)c(COC(=O)[C@@H]2[C@@H](C=C(Cl)Cl)C2(C)C)c(F)c1F [TL-I-141]	0 #	100	0.0	100	0.0	0 #	100	–	100	100	100	–	100	100	Knockdown 1 hour (%) ([2]; 2.5 nmol/cm^2, K&D module): 100%; Knockdown 1 hour (%) ([2]; 25 nmol/cm^2, K&D module): 100%; mortality at 0.0025 µM ([2]; Aedes aegypti, 24 h): 100%; mortality at 0.025 µM ([2]; Aedes aegypti, 48 h): 100%
CC1(C)C(C=C(Cl)Cl)C1C(=O)OC(C#N)c1cccc(Oc2ccccc2)c1 (centres unmarked) [a-cypermethrin, reference compound]	–	–	–	–	–	–	67	91	100	81	83	100	100	98	–
